Values of other authors, collected in US20160378910A1, “MOLECULAR ACTIVE CENTER IDENTIFICATION USING TUNNELING BARRIERS AND/OR ASSOCIATED MEASUREMENTS FOR SUB-MOLECULAR QSAR” (Florida Institute of Technology, Inc., priority 2015, published 2016).

System: W-2 strain of P. falciparum
Conditions: W-2 strain of malaria (P. falciparum); rank among the twelve tryptanthrin analogs in the α3* lobe QSAR plot (FIG. 13)

Q: With `O=C1c2cc(I)ccc2-n2c1nc1c(O)nc(O)nc1c2=O` [1,3-diaza-2,4-hydroxy-8-iodotryptanthrin] as the molecule, how does the IC50 read?
A: highest
